Laboratory results published in patent US7964531B2, “3-phenoxy-4-pyridazinol derivatives and herbicidal composition containing the same” (Mitsui Chemicals Agro, Inc., priority 2001, dated 2011).

How the values were obtained:
Assay type in all cases: in vivo
Conditions in all cases: wettable powder applied 3 days after transplanting, judged after 25 days
[1] = system: Scirpus joncoides; experiment: Test Example 1: herbicidal effects, paddy-field pot test
In short: (§1)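 Herbicidal effect and rice injury were graded on a six-step growth-inhibition scale (0: 0–10% to 5: 91–100%) at 25 days after pot application of water-diluted wettable powder, given 3 days post-transplant under flooded greenhouse conditions.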

[2] = system: barnyardgrass (Echinochloa oryzicola Vasing.); experiment: as above
In short: as §1

[3] = system: Cyperus serotinus; experiment: as above
In short: as §1

[4] = system: annual broad-leaved weeds (Lindernia spp., Rotala indica); experiment: as above
In short: as §1

[5] = system: transplanted paddy-field rice; experiment: Test Example 1: crop injury against transplanted paddy-field rice
In short: as §1

SMILES | Herbicidal effects Scirpus joncoides ([1]; chemical dosage 10 g/a) | Herbicidal effects Barnyard grass ([2]; chemical dosage 10 g/a) | Herbicidal effects Cyperus serotinus ([3]; chemical dosage 10 g/a) | Herbicidal effects Broad leaf ([4]; chemical dosage 10 g/a) | Crop injury against transplanted rice ([5]; chemical dosage 10 g/a) | Herbicidal effects Scirpus joncoides ([1]; chemical dosage 20 g/a) | Herbicidal effects Barnyard grass ([2]; chemical dosage 20 g/a) | Herbicidal effects Cyperus serotinus ([3]; chemical dosage 20 g/a) | Herbicidal effects Broad leaf ([4]; chemical dosage 20 g/a) | Crop injury against transplanted rice ([5]; chemical dosage 20 g/a) | Herbicidal effects Scirpus joncoides ([1]; chemical dosage 12.5 g/a) | Herbicidal effects Scirpus joncoides ([1]; chemical dosage 25 g/a) | Herbicidal effects Barnyard grass ([2]; chemical dosage 12.5 g/a) | Herbicidal effects Barnyard grass ([2]; chemical dosage 25 g/a) | Herbicidal effects Cyperus serotinus ([3]; chemical dosage 12.5 g/a) | Herbicidal effects Cyperus serotinus ([3]; chemical dosage 25 g/a) | Herbicidal effects Broad leaf ([4]; chemical dosage 12.5 g/a) | Herbicidal effects Broad leaf ([4]; chemical dosage 25 g/a) | Crop injury against transplanted rice ([5]; chemical dosage 12.5 g/a) | Crop injury against transplanted rice ([5]; chemical dosage 25 g/a)
Cc1ccc(C)c(Oc2nnc(Cl)cc2O)c1Br [Example 290] | 4 (Growth inhibition rate; 71 to 90%) | 0 (Growth inhibition rate; 0 to 10%) | 5 (Growth inhibition rate; 91 to 100%) | 5 (Growth inhibition rate; 91 to 100%) | 0 (Growth inhibition rate; 0 to 10%) |  |  |  |  |  |  |  |  |  |  |  |  |  |  | 
Cc1ccc(Br)c(Oc2nnc(Cl)cc2O)c1C [Example 294] | 5 (Growth inhibition rate; 91 to 100%) | 1 (Growth inhibition rate; 11 to 30%) | 5 (Growth inhibition rate; 91 to 100%) | 5 (Growth inhibition rate; 91 to 100%) | 0 (Growth inhibition rate; 0 to 10%) | 5 (Growth inhibition rate; 91 to 100%) | 2 (Growth inhibition rate; 31 to 50%) | 5 (Growth inhibition rate; 91 to 100%) | 5 (Growth inhibition rate; 91 to 100%) | 0 (Growth inhibition rate; 0 to 10%) |  |  |  |  |  |  |  |  |  | 
Cc1ccc(C)c(Oc2nnc(Cl)cc2O)c1C [Example 295] |  |  |  |  |  |  |  |  |  |  | 5 (Growth inhibition rate; 91 to 100%) | 5 (Growth inhibition rate; 91 to 100%) | 0 (Growth inhibition rate; 0 to 10%) | 1 (Growth inhibition rate; 11 to 30%) | 5 (Growth inhibition rate; 91 to 100%) | 5 (Growth inhibition rate; 91 to 100%) | 5 (Growth inhibition rate; 91 to 100%) | 5 (Growth inhibition rate; 91 to 100%) | 0 (Growth inhibition rate; 0 to 10%) | 0 (Growth inhibition rate; 0 to 10%)
Cc1ccc(C2CC2)c(Oc2nnc(Cl)cc2O)c1C [Example 296] | 5 (Growth inhibition rate; 91 to 100%) | 1 (Growth inhibition rate; 11 to 30%) | 5 (Growth inhibition rate; 91 to 100%) | 5 (Growth inhibition rate; 91 to 100%) | 0 (Growth inhibition rate; 0 to 10%) | 5 (Growth inhibition rate; 91 to 100%) | 2 (Growth inhibition rate; 31 to 50%) | 5 (Growth inhibition rate; 91 to 100%) | 5 (Growth inhibition rate; 91 to 100%) | 0 (Growth inhibition rate; 0 to 10%) |  |  |  |  |  |  |  |  |  | 
CSCc1c(C)ccc(C)c1Oc1nnc(Cl)cc1O [Example 303] |  |  |  |  |  |  |  |  |  |  | 3 (Growth inhibition rate; 51 to 70%) | 4 (Growth inhibition rate; 71 to 90%) | 0 (Growth inhibition rate; 0 to 10%) | 1 (Growth inhibition rate; 11 to 30%) | 5 (Growth inhibition rate; 91 to 100%) | 5 (Growth inhibition rate; 91 to 100%) | 3 (Growth inhibition rate; 51 to 70%) | 4 (Growth inhibition rate; 71 to 90%) | 0 (Growth inhibition rate; 0 to 10%) | 0 (Growth inhibition rate; 0 to 10%)
Oc1cc(Cl)nnc1Oc1c(Br)ccc2c1CCC2 [Example 304] | 4 (Growth inhibition rate; 71 to 90%) | 4 (Growth inhibition rate; 71 to 90%) | 4 (Growth inhibition rate; 71 to 90%) | 5 (Growth inhibition rate; 91 to 100%) | 0 (Growth inhibition rate; 0 to 10%) | 5 (Growth inhibition rate; 91 to 100%) | 4 (Growth inhibition rate; 71 to 90%) | 5 (Growth inhibition rate; 91 to 100%) | 5 (Growth inhibition rate; 91 to 100%) | 0 (Growth inhibition rate; 0 to 10%) |  |  |  |  |  |  |  |  |  | 
Cc1ccc2c(c1Oc1nnc(Cl)cc1O)CCC2 [Example 305] | 5 (Growth inhibition rate; 91 to 100%) | 1 (Growth inhibition rate; 11 to 30%) | 5 (Growth inhibition rate; 91 to 100%) | 5 (Growth inhibition rate; 91 to 100%) | 0 (Growth inhibition rate; 0 to 10%) |  |  |  |  |  |  |  |  |  |  |  |  |  |  | 
CCc1ccc2c(c1Oc1nnc(Cl)cc1O)CCC2 [Example 306] | 5 (Growth inhibition rate; 91 to 100%) | 1 (Growth inhibition rate; 11 to 30%) | 5 (Growth inhibition rate; 91 to 100%) | 5 (Growth inhibition rate; 91 to 100%) | 0 (Growth inhibition rate; 0 to 10%) |  |  |  |  |  |  |  |  |  |  |  |  |  |  | 
Oc1cc(Cl)nnc1Oc1c(C2CC2)ccc2c1CCC2 [Example 307] | 5 (Growth inhibition rate; 91 to 100%) | 3 (Growth inhibition rate; 51 to 70%) | 5 (Growth inhibition rate; 91 to 100%) | 5 (Growth inhibition rate; 91 to 100%) | 0 (Growth inhibition rate; 0 to 10%) | 5 (Growth inhibition rate; 91 to 100%) | 4 (Growth inhibition rate; 71 to 90%) | 5 (Growth inhibition rate; 91 to 100%) | 5 (Growth inhibition rate; 91 to 100%) | 0 (Growth inhibition rate; 0 to 10%) |  |  |  |  |  |  |  |  |  | 
Cc1ccc2c(c1Oc1nnc(Cl)cc1O)OCC2 [Example 308] | 4 (Growth inhibition rate; 71 to 90%) | 2 (Growth inhibition rate; 31 to 50%) | 5 (Growth inhibition rate; 91 to 100%) | 5 (Growth inhibition rate; 91 to 100%) | 0 (Growth inhibition rate; 0 to 10%) | 5 (Growth inhibition rate; 91 to 100%) | 4 (Growth inhibition rate; 71 to 90%) | 5 (Growth inhibition rate; 91 to 100%) | 5 (Growth inhibition rate; 91 to 100%) | 0 (Growth inhibition rate; 0 to 10%) |  |  |  |  |  |  |  |  |  | 
Oc1cc(Cl)nnc1Oc1c(C2CC2)ccc2ccoc12 [Example 311] | 4 (Growth inhibition rate; 71 to 90%) | 1 (Growth inhibition rate; 11 to 30%) | 4 (Growth inhibition rate; 71 to 90%) | 5 (Growth inhibition rate; 91 to 100%) | 0 (Growth inhibition rate; 0 to 10%) | 5 (Growth inhibition rate; 91 to 100%) | 3 (Growth inhibition rate; 51 to 70%) | 5 (Growth inhibition rate; 91 to 100%) | 5 (Growth inhibition rate; 91 to 100%) | 0 (Growth inhibition rate; 0 to 10%) |  |  |  |  |  |  |  |  |  | 
Cc1cc(C)c(Oc2nnc(Cl)cc2O)c(C)c1 [Example 317] |  |  |  |  |  |  |  |  |  |  | 2 (Growth inhibition rate; 31 to 50%) | 3 (Growth inhibition rate; 51 to 70%) | 0 (Growth inhibition rate; 0 to 10%) | 0 (Growth inhibition rate; 0 to 10%) | 5 (Growth inhibition rate; 91 to 100%) | 5 (Growth inhibition rate; 91 to 100%) | 4 (Growth inhibition rate; 71 to 90%) | 5 (Growth inhibition rate; 91 to 100%) | 0 (Growth inhibition rate; 0 to 10%) | 1 (Growth inhibition rate; 11 to 30%)
Cc1cc(C)c(Oc2nnc(Cl)cc2O)c(C2CC2)c1 [Example 318] | 5 (Growth inhibition rate; 91 to 100%) | 0 (Growth inhibition rate; 0 to 10%) | 5 (Growth inhibition rate; 91 to 100%) | 5 (Growth inhibition rate; 91 to 100%) | 0 (Growth inhibition rate; 0 to 10%) | 5 (Growth inhibition rate; 91 to 100%) | 1 (Growth inhibition rate; 11 to 30%) | 5 (Growth inhibition rate; 91 to 100%) | 5 (Growth inhibition rate; 91 to 100%) | 0 (Growth inhibition rate; 0 to 10%) |  |  |  |  |  |  |  |  |  | 
Cc1cc(C)c(Br)c(Oc2nnc(Cl)cc2O)c1C [Example 319] | 5 (Growth inhibition rate; 91 to 100%) | 2 (Growth inhibition rate; 31 to 50%) | 5 (Growth inhibition rate; 91 to 100%) | 5 (Growth inhibition rate; 91 to 100%) | 0 (Growth inhibition rate; 0 to 10%) | 5 (Growth inhibition rate; 91 to 100%) | 3 (Growth inhibition rate; 51 to 70%) | 5 (Growth inhibition rate; 91 to 100%) | 5 (Growth inhibition rate; 91 to 100%) | 0 (Growth inhibition rate; 0 to 10%) |  |  |  |  |  |  |  |  |  | 
